The values that follow come from patent US20090093454A1, “Chemical Compounds” (priority 2005, published 2009).

For this assay, the system named is HIV-1. Nature of the assay: HIV infectivity assay (Table 2, strain not given). As to conditions: Human immunodeficiency virus 1, read-out: Activity Level. Format: cell-based. The procedure:
Compounds were profiled against two HIV-1 viruses, the M-tropic (CCR5 utilizing) Ba-L strain and the T-tropic (CXCR4 utilizing) IIIB strain. Both viruses were propagated in human peripheral blood lymphocytes. Compounds were tested for there ability to block infection of the HOS cell line (expressing hCXCR4/hCCR5/hCD4/pHIV-LTR-luciferase) by either HIV-1 Ba-L or HIV-1, IIIB. Compound cytotoxicity was also examined in the absence of virus addition.
HOS cells (expressing hCXCR4/hCCR5/hCD4/pHIV-LTR-luciferase) were harvested and diluted in Dulbeccos modified Eagles media supplemented with 2% FCS and non-essential amino acid to a concentration of 60,000 cells/ml. The cells were plated into 96-well plates (100 ul per well) and the plates were placed in a tissue culture incubator (37° C.; 5% CO2/95% air) for a period of 24 h.
Subsequently, 50 ul of the desired drug solution (4 times the final concentration) was added to each well and the plates were returned to the tissue culture incubator (37° C.; 5% CO2/95% air) for 1 h. Following this incubation 50 ul of diluted virus was added to each well (approximately 2 million RLU per well of virus). The plates were returned to the tissue culture incubator (37° C.; 5% CO2/95% air) and were incubated for a further 96 h.
Following this incubation the endpoint for the virally infected cultures was quantified following addition of Steady-Glo Luciferase assay system reagent (Promega, Madison, Wis.). Cell viability or non-infected cultures was measured using a CellTiter-Glo luminescent cell viability assay system (Promega, Madison, Wis.). All luminescent readouts are performed on a Topcount luminescence detector (Packard, Meridien, Conn.).
Compounds were profiled against two HIV-1 viruses, the M-tropic (CCR5 utilizing) Ba-L strain and the T-tropic (CXCR4 utilizing) IIIB strain. Ba-L was propagated in either peripheral blood lymphocytes or SupT1/CCR5+/CXCR4+ cells. IIIB was propagated in peripheral blood lymphocytes. Compounds were tested for their ability to block infection of the HOS cell line (expressing hCXCR4/hCCR5/hCD4/pHIV-LTR-luciferase) by either HIV-1 Ba-L or HIV-1, IIIB. Compound cytotoxicity was also examined in the absence of virus addition.
HOS cells (expressing hCXCR4/hCCR5/hCD4/pHIV-LTR-luciferase) were harvested and diluted in Dulbeccos modified Eagles media supplemented with 2% FCS to a concentration of 120,000 cells/ml. The cells were plated into 96-well plates (50 μl per well) and the plates were placed in a tissue culture incubator (370° C.; 5% CO2/95% air) for a period of 24 h.
Subsequently, 50 μl of the desired drug solution (2 times the final concentration) was added to each well and the plates were returned to the tissue culture incubator (370° C.; 5% CO2/95% air) for 1 h. Following this incubation, 60 μl of diluted virus (4 times the final concentration) was added to 60 μl of 2× the final desired concentration of the compound and 100 μl of this compound/virus mix was added to each well (approximately 2 million RLU per well of virus). The plates were returned to the tissue culture incubator (370° C.; 5% CO2/95% air) and were incubated for a further 96 h.
In the case of `c1cnc2c(c1)CC[C@@H]1CCCN(Cc3nc4ccccc4n3CCCN3CCOCC3)[C@H]21` (racemic) [Example 44, (cis) 1-({1-[3-(4-morpholinyl)propyl]-1H-benzimidazol-2-yl}methyl)-1,2,3,4,4a,5,6,10b-octahydro-1,10-phenanthroline], the IC50 was in the range of 100 to 500 nM.
For the molecule `c1cnc2c(c1)CC[C@@H]1CCCN(Cc3cn4c(N5CCN6CCC[C@H]6C5)cccc4n3)[C@H]21` [Example 106, (4aR,10bS)-1-({5-[(8aS)-hexahydropyrrolo[1,2-a]pyrazin-2(1H)-yl]imidazo[1,2-a]pyridin-2-yl}methyl)-1,2,3,4,4a,5,6,10b-octahydro-1,10-phenanthroline], the IC50 is less than 100 nM.
Regarding `CN1CCC(N(C)c2cccc3nc(CN4CCC[C@H]5CCc6cccnc6[C@H]54)cn23)CC1` [Example 74, 2-[(4aR,10bS)-3,4,4a,5,6,10b-hexahydro-1,10-phenanthrolin-1(2H)-ylmethyl]-N-methyl-N-(1-methyl-4-piperidinyl)imidazo[1,2-a]pyridin-5-amine], the IC50 is less than 100 nM.
For the molecule `CC(C)N1CCC[C@H](Cn2c(CN3CCC[C@H]4CCc5cccnc5[C@H]43)nc3ccccc32)C1` [Example 65, (4aR,10bS)-1-[(1-{[(3S)-1-(1-methylethyl)-3-piperidinyl]methyl}-1H-benzimidazol-2-yl)methyl]-1,2,3,4,4a,5,6,10b-octahydro-1,10-phenanthroline], the IC50 is less than 100 nM.
Regarding `NCCCCCn1c(CN2CCC[C@@H]3CCc4cccnc4[C@H]32)nc2ccccc21` (relative stereo) [Example 35, (trans)-5-[2-(3,4,4a,5,6,10b-hexahydro-1,10-phenanthrolin-1(2H)-ylmethyl)-1H-benzimidazol-1-yl]-1-pentanamine], the IC50 was in the range of 100 to 500 nM.
With `O=C(CN1CCN(c2cccc3nc(CN4CCC[C@H]5CCc6cccnc6[C@H]54)cn23)CC1)N1CCCC1` [Example 101, (4aR,10bS)-1-[(5-{4-[2-oxo-2-(1-pyrrolidinyl)ethyl]-1-piperazinyl}imidazo[1,2-a]pyridin-2-yl)methyl]-1,2,3,4,4a,5,6,10b-octahydro-1,10-phenanthroline], the IC50 is less than 100 nM.
In the case of `c1cnc2c(c1)CC[C@@H]1CCCN(Cc3cn4c(N5CCSCC5)cccc4n3)[C@H]21` [Example 78, (4aR,10bS)-1-{[5-(4-thiomorpholinyl)imidazo[1,2-a]pyridin-2-yl]methyl}-1,2,3,4,4a,5,6,10b-octahydro-1,10-phenanthroline], the IC50 fell in the range of 100 to 500 nM.
As for `CN(C)C(=O)CN1CCN(c2cccc3nc(CN4CCC[C@H]5CCc6cccnc6[C@H]54)cn23)CC1` [Example 102, 2-(4-{2-[(4aR,10bS)-3,4,4a,5,6,10b-hexahydro-1,10-phenanthrolin-1(2H)-ylmethyl]imidazo[1,2-a]pyridin-5-yl}-1-piperazinyl)-N,N-dimethylacetamide], the IC50 was less than 100 nM.
In the case of `NCCN1CCN(c2cccc3nc(CN4CCC[C@H]5CCc6cccnc6[C@H]54)cn23)CC1` [Example 92, [2-(4-{2-[(4aR,10bS)-3,4,4a,5,6,10b-hexahydro-1,10-Phenanthrolin-1(2H)-ylmethyl]imidazo[1,2-a]pyridin-5-yl}-1-piperazinyl)ethyl]amine], the IC50 is less than 100 nM.
The figure for `CN(C)CC1CCN(c2cccc3nc(CN4CCC[C@H]5CCc6cccnc6[C@H]54)cn23)CC1` [Example 86, [(1-{2-[(4aR,10bS)-3,4,4a,5,6,10b-hexahydro-1,10-phenanthrolin-1(2H)-ylmethyl]imidazo[1,2-a]pyridin-5-yl}-4-piperidinyl)methyl]dimethylamine] is less than 100 nM; for `COCCN1CCN(c2cccc3nc(CN4CCC[C@H]5CCc6cccnc6[C@H]54)cn23)CC1` [Example 99, (4aR,10bS)-1-[(5-{4-[2-(methyloxy)ethyl]-1-piperazinyl}imidazo[1,2-a]pyridin-2-yl)methyl]-1,2,3,4,4a,5,6,10b-octahydro-1,10-phenanthroline] it is less than 100 nM.
